The source of these data is patent US9283242B2, “Uses of dihydro bases” (priority 2013, dated 2016).

For series [1], the system named is HK81 (AlkB+) E. coli cells. The series is classed as cell-based. The following applies: HK81; percentage relative to unmodified control genome. How it is done:
(A) A 16mer oligonucleotide containing KP1212 (SEQ ID NO: 1) (or controls) at a specific site was chemically synthesized and ligated into the genome of an M13 bacteriophage. (B) The KP1212-containing M13 genomes were replicated within E. coli cells. Progeny were analyzed to characterize the amount and the type of nucleic acid base placed opposite the lesion during replication. The relative reduction in lesion vs. non-lesion competitor progeny formation was used as an estimate of the extent to which KP1212 and m3C inhibited DNA replication. (C) The KP1212-containing M13 genomes were used as templates for in vitro polymerase extension assays, carried out at 72° C., using the high-fidelity DNA polymerase PfuTurbo. (D) Bypass efficiency (CRAB assay) of KP1212, m3C, C in HK81 (AlkB^+) and HK82 (AlkB^−) E. coli cells. m3C and undamaged C were used as controls. Genomes were made and normalized to one another before being combined with a competitor genome. Each mixture was transformed into the corresponding cell strain in triplicate, and bypass efficiency was calculated by using the undamaged C genome as 100% bypass, with error bars representing one standard deviation. (E) Mutagenesis (REAP assay) of KP1212, m3C, and C in HK82 (AlkB^−) E. coli cells. m3C, undamaged C, and an approximately equimolar mixture of genomes carrying unmodified G/A/T/C bases at the site of inquiry (denoted as GATC) were used as controls. Genomes containing the lesions of interest were transfected into E. coli in triplicate.
All E. coli strains used in this work contain the F′ episome, which enables infection by M13 phage. GW5100 strain was used for large scale preparation of M13 phage DNA, SCS 110 (JM110, end Al) was used for amplification of progeny phage post-electroporation, and NR9050 was the strain of choice for double agar plating with X-GAL for blue-clear detection of plaques. The E. coli strains used to replicate lesion-containing phage were HK81 (as AB1157, but nalA) and HK82 (as AB1157, but nalA alkB22; AlkB-deficient).

Series [2] relates to HK82 (AlkB−) E. coli cells. Type of series: cell-based. To be noted: for Polymerase bypass efficiency, Avg.: HK82, percentage relative to unmodified control genome, triplicate.
In series [3] the test system is HK82 (AlkB−) E. coli cells. The series is classed as cell-based. The following applies: for Mutagenicity, Average % A / Mutagenicity, Average % C / Mutagenicity, Average % G / Mutagenicity, Average % T: (a) HK82; for base pairing / mutagenicity (in words): FIGS. 18C, 18E, m3C in repair deficient cells.
Series [4] can be described thus: Variable temperature 1H NMR, tautomerism in DMF-d7. Type of series: physicochemical. To be noted: for tautomerism by Variable Temperature NMR: DMF-d7, 20 to −60° C. How it is done:
At 20° C., exchangeable protons on the base moiety are observed at 7.58 ppm and 4.14 ppm (FIG. 10). At −60° C., exchangeable protons on the base moiety are observed at 8.70 ppm, 8.08 ppm, and 4.68 ppm (FIG. 11). Protons with a chemical shift of 8.70, 8.08, and 7.58 ppm likely correspond to enolic, amido, or imino protons, while protons with a chemical shift of 4.68 and 4.14 ppm likely correspond to amino protons. The expected chemical shifts for enolic, amido, and imino protons are relatively close, and thus these species cannot be assigned at this stage. […] Only the existence of multiple tautomeric species would explain the presence of three exchangeable protons resonances. […] Based on their chemical structures, the keto-amino tautomer will pair with guanine and the keto-imino/enol-imino tautomers can pair with adenine.
All NMR experiments were performed on Varian 500 MHz NMR spectrometers. The deuterated solvent DMF-d7 was from Cambridge Isotope Laboratories, Andover, Mass., USA. 5-Aza-5,6-dihydro-2′-deoxycytidine (KP1212) nucleoside was from Berry & Associates Inc., Dexter, Mich., USA. The NMR sample was prepared by dissolving 10 mg of KP1212 nucleoside in 1.0 ml DMF-d7 (final concentration ˜44 mM). ^1H NMR spectra were reported in parts per million (ppm) and were referenced to the signals for DMF-d7 (8.03 ppm). ^13C NMR spectra were referenced to the signals for DMF-d7 (163.15 ppm).
FIG. 14A depicts the structures of all five possible tautomers (1 to 5) of KP1212, among which the three active protons on the nucleobase shift among the 02, N3, N4 and N5 positions. […] Before assigning the three active protons on the nucleobase moiety, all non-exchangeable protons in KP1212 and the two hydroxyl protons on the 3′ and 5′ positions were identified by carrying out 1D (^1H and ^13C) and 2D (COSY, HSQC, and HMBC) NMR experiments. The NMR signals of the three active protons in the base portion of KP1212 were studied at different temperatures. […] When the temperature was decreased to −50° C., the three broad peaks resolved into six distinct proton resonances (FIG. 14B, denoted as peaks i-vi), which could be assigned to imino (designated as e and n in FIGS. 14A to 14C), amido (designated as g and m), enolic (designated as c and d) or amino (designated as a, b, f, h, i, j, k, l, and o) protons.
At −50° C. six distinct proton resonances (FIG. 14B, i to vi) were observed, attributable to protons bound either to nitrogen or to oxygen atom (for only the base portion of the KP1212 molecule). Integration of the six broad peaks permitted estimation of the relative ratios of the five tautomeric species that exist in solution (FIG. 14A).
The NMR data also allowed the determination of the relative ratios of the tautomeric species present in the DMF solution at −50° C. (FIGS. 14B and 14C). Several peaks in the NMR spectrum partially overlapped (e.g., iv and v), so the raw data were reconstructed using a least squares fit algorithm (FIG. 16). The reconstructed peaks from the simulation were integrated, yielding an estimate of the relative amounts of each of the proton resonances in the spectrum. […] 2) Based on the peak assignments from part 1), a system of linear equations was set up using the relative amounts of tautomers as unknown variables (FIG. 14D). Each NMR peak provided a linear equation whereby the peak area should be equal to the sum of all tautomers (as relative amounts) containing protons that contribute to that peak. The solutions of these equations yielded the relative ratios of the tautomeric species present in DMF at −50° C. (FIG. 14D).

[5] abbreviates: in vitro and in vivo replication of a single-stranded vector containing a single KP1212.
Setting [6] is: −50° C. in DMF, deconvoluted from NMR spectrum.

Molecules are shown by their SMILES. “Also recorded” adds a separate entry of the source.

Consider `NC1=NC(=O)N([C@H]2C[C@H](O)[C@@H](CO)O2)CN1` [KP1212, 5-aza-5,6-dihydro-2′-deoxycytidine], for which, in series [1], the “Polymerase bypass efficiency, Avg.” value worked out at 128%. In series [2] (E. coli (FIG. 18D), for m3C cells that lack AlkB), the “replication block / toxicity to replication” value was “not to be a replication block”. The “Polymerase bypass efficiency, Avg.” value in series [2] was determined as 91%. Moreover, in series [3], the “Mutagenicity, Average % A” value was 0.0%; the “Mutagenicity, Average % C” value is recorded as 89.1%; the “Mutagenicity, Average % G” value stood at 0.4%; the “Mutagenicity, Average % T” value is on record as 10.5%. In addition, the “base pairing / mutagenicity (in words)” value in series [3] is “mutagenic both in vitro and in vivo”. In addition, the “in vivo mutation frequency” value in series [3] (frequency of pairing with any non-G base (A)) was “approximately 10%”. Also, in series [3] (setting [5]), the “paired with A” value was found to be 10% and the “paired with G” value came to 90%. Moreover, in series [3] (in vivo, E. coli (FIG. 18E)), the “pairing with A in vivo” value amounted to 10% and the “pairing with G in vivo” value was 90%. Further, in series [3] (observed in vitro and in vivo in this study), the mutation frequency stood at 10%. In addition, the “tautomerism by Variable Temperature NMR” value in series [4] is reported as “shows multiple tautomerism; also recorded: different tautomeric forms”. Further, in series [4] (setting [6]), the “relative proportion of enol tautomer 1” value is recorded as 51%, the “relative proportion of enol tautomer 2” value is 38% and the “relative proportion of keto tautomers 3 to 5 collectively” value is listed as 11%.

Take `Nc1ccn([C@H]2C[C@H](O)[C@@H](CO)O2)c(=O)n1` [dC, deoxycytidine]: in series [1], the “Polymerase bypass efficiency, Avg.” value stood at 100%. Further, the “Polymerase bypass efficiency, Avg.” value in series [2] turned out to be 100%. In series [3], the “Mutagenicity, Average % A” value came to 0.0%; the “Mutagenicity, Average % C” value came to 100.0%; the “Mutagenicity, Average % G” value was determined as 0.0%; the “Mutagenicity, Average % T” value was determined as 0.0%. Further, the “base pairing / mutagenicity (in words)” value in series [3] is recorded as “only pairs with G”. The “tautomerism by Variable Temperature NMR” value in series [4] was “does not show multiple tautomerism; also recorded: single tautomerism”. For the same molecule, in series [4] (listed as deoxycytidine), the “tautomerism by Variable Temperature NMR” value was “only one tautomeric form; also recorded: no imino or enol tautomer exists”.
